Data: patent US20040116530A1, “Tissue fibrosis inhibitors” (priority 2001, published 2004)
Marks after values point to notes of the source that are not given here.

Experiments:
[1] = tested on: dimethylnitrosamine-induced rat hepatitis models; test: Dimethylnitrosamine-induced rat hepatitis model (hepatic injury and fibrogenesis); assay type: in vivo; conditions: for Hepatic Fibrogenesis Score: n=15, histology (azan stain), grade 0-4
Protocol: Dimethylnitrosamine was frequently administered to rats for 3 weeks to thereby make the rats have irreversible hepatic fibrogenesis. The rats are the test models in this experiment. As the index of hepatic injury and fibrogenesis, the hepatic hydroxyproline was measured in every rat and the liver tissue of each rat was pathologically analyzed. Based on the data, the tissue fibrogenesis-inhibiting effect of the prostaglandin-I2 agonist was evaluated.
10 mg/kg of dimethylnitrosamine was intra-abdominally administered to rats everyday in continuous 3 days a week, over a period of three weeks. 5 days after the final administration of dimethylnitrosamine, the liver was taken out of each rat and its weight was measured. Then, distal potion of the left lobe of the liver was cut out. A part of it was used for histologic analysis^*1) for hepatic fibrogenesis; and another part thereof was used for determination of hepatic hydroxyproline content^*2).
The test compound was orally administered to the rats from the initial dimethylnitrosamine administration to one day before the blood collection from the rats. On the day for dimethylnitrosamine administration, the test compound was administered 12 hours after the dimethylnitrosamine administration; and on the other day, it was administered once a day. The effect of the test compound for curing hepatic injury and fibrogenesis was investigated. The test compound was administered to three groups −1 mg/kg/day administration group (n =15), 3.2 mg/kg/day administration group (n=15), and 10 mg/kg/day administration group (n=15). To the comparative control group, 0 mg/kg administration group (n=15), a solvent was administered in place of the test compound. To confirm the presentation of hepatic fibrogenesis through
dimethylnitrosamine administration, a solvent in place of dimethylnitrosamine was administered to a no-treatment group (n=5).
A distal potion of the left lobe of the liver was fixed in 10% neutral buffer formalin liquid, then stained with azan to prepare an anatomicopathological specimen, on which the degree of fibrogenesis was classified into 5 grades according to the fibrogenesis criteria mentioned below.
Grade 0: No fibrogenesis was found.
Grade 1: Light fibrogenesis was found only locally in and around the portal vein and the central vein.
Grade 2: The fibrogenesis in and around the portal vein and the central vein extended to the lobe.
Grade 4: High-level fibrogenesis was found along with pseudo lobe formation.
A part of the left lobe of the liver that had been frozen at −80° C. was thawed, and 1 ml/500 mg-liver weight of phosphate balanced salt buffer (PBS(−), Dulbecco PBS(−)) was added to it. Then, this was homogenized in Polytron (power control 7, type; PT 10 20 350D, by KINEMATICA) for 1 minute. 4 ml of the thus-homogenized liquid was transferred into a screw cap-equipped centrifuge (by PYREX), and 0.4 ml of 9M HCl was added to it and incubated at120° C. for 8 hours (in DRYING STERILIZER SG-62, by YAMATO). Next, this was further incubated at 4° C. overnight, then neutralized with 6 M KOH and 9M HCl, and then filtered (pore size 0.45 μm, MILLIPORE). 1 ml of chloramine-T^(**) was added to 100 μl of the filtrate or a standard liquid^(*), and left at room temperature for 20 minutes. 1 ml of Ehrich solution^(***) was added to it, and incubated at 65° C. for 40minutes. The reaction was stopped in ice-water, and then the absorbance (OD560) of the reaction liquid was measured with an spectrophotometer UV2100PC (UV-VIS SCANNING SPECTRO PHOTOMETER, by SHIMADZU).

[2] = tested on: bleomycin-induced mouse fibrotic lung models; test: Bleomycin-induced lung fibrosis model in mice; assay type: in vivo
Protocol: Bleomycin was frequently administered to mice for 10 days to thereby make the mice fibrotic lung. The mice are the test models in this experiment. As the index of lung fibrogenesis, the lung hydroxyproline was measured in every mouse, from which the effect of the prostaglandin-I2 agonist for inhibiting lung fibrogenesis was investigated.
1. 10 mg/kg of bleomycin that had been dissolved in saline to have a concentration of 1 mg/ml was intraperitoneally administered to 8-weeks-old male C57BL/6N mice, once a day, everyday for continuous 10 days. Saline alone was intraperitoneally administered to the negative control group.
2. To the animals of the positive control group and the test compound-administered group, 10 ml/kg of pure water or an aqueous solution of the test compound (32 mg/kg) was orally administered everyday during the test period from the start of the bleomycin administration.
3. 4 weeks after the start of the bleomycin administration, the animals were killed in a mode of euthanasia, the lung was taken out, its wet weight was measured, and the lung was then freesed at −30° C.
4. […]
5. The hydrolyzed sample was neutralized with 6 mols/liter of potassium hydroxide, and the hydroxyproline content of the sample was measured, from which the lung hydroxyproline content was derived. […]

acute hepatitis = conditions: literature statement; cited from earlier work
[3] = test compound-administered groups (1, 3.2, 10 mg/kg/day oral) vs dimethylnitrosamine control, figure only

SMILES	Hepatic Fibrogenesis Score ([1]; 1 mg/kg/day oral, control (0 mg/kg) 2.1 ± 0.2)	Hepatic Fibrogenesis Score ([1]; 3.2 mg/kg/day oral, p < 0.05 vs. 0 mg/kg (2.1 ± 0.2))	Hepatic Fibrogenesis Score ([1]; 10 mg/kg/day oral, p < 0.05 vs. 0 mg/kg (2.1 ± 0.2))	hepatic fibrogenesis (histology), in words ([1]; test compound-administered groups (1, 3.2, 10 mg/kg/day oral) vs dimethylnitrosamine control)	hepatic hydroxyproline content (hepatic collagen content) [1, 3]	liver weight reduction [1, 3]	Hydroxyproline Content (lung) ([2]; 32 mg/kg oral daily, 4 weeks after start of bleomycin, n=15, positive control 398.19 ± 15.483, negative control 200.03 ± 6.9707, p < 0.01 vs positive control)	increase in the lung hydroxyproline content caused by bleomycin administration ([2]; oral administration of 32 mg/kg)	hepatic coagulation necrosis in acute hepatitis (acute hepatitis)
O=C(O)COc1cccc2c1CC[C@](O)(COC(=O)N(c1ccccc1)c1ccccc1)C2 [Test compound, [[(2R)-5-(carboxymethoxy)-2-hydroxy-1,2,3,4-tetrahydronaphth-2-yl]methyl]N,N-diphenylcarbamate]	1.7 ± 0.2	1.3 ± 0.2*	1.3 ± 0.2*	inhibited	decreased	suppressed	308.37 ± 19.403 ug/lung	significantly inhibited	–
CC#CCC(C)[C@H](O)/C=C/[C@@H]1[C@H]2c3cccc(CCCC(=O)O)c3O[C@H]2C[C@H]1O (mixture of isomers) [beraprost]	–	–	–	–	–	–	–	–	inhibits hepatic coagulation necrosis
